The source of these data is patent US20230055237A1, “COMPOUNDS AND METHODS FOR THE TREATMENT OF CYSTIC FIBROSIS” (Flatley Discovery Lab, LLC, priority 2019, published 2023).

This assay deals with T1, CFTR (Homo sapiens, UniProt P13569, DEL508-508).
T1 construct: Primary CF airway epithelial cells were obtained from the UNC Cystic Fibrosis Tissue Procurement and Cell Culture Core; host or cells: primary CF airway epithelial cells, differentiated at the air-liquid interface
Nature of the assay: Equivalent current assay in primary CF airway epithelial cells (NAUC, combination with 1st site corrector FDL169 or VX-809). The assay is classed as cell-based. The following applies: 37° C., 24 h.

The mark [1] stands for this setting: test compound 1 μM in combination with 1st site corrector FDL169 (3 μM).
Where [2] appears, read: test compound 3 μM in combination with 1st site corrector FDL169 (3 μM).
The mark [3] stands for this setting: test compound 1 μM in combination with 1st site corrector VX-809 (3 μM).
Setting [4] is: test compound 3 μM in combination with 1st site corrector VX-809 (3 μM).
Where [5] appears, read: test compound 10 μM in combination with 1st site corrector VX-809 (3 μM).
[6] abbreviates: test compound 10 μM in combination with 1st site corrector FDL169 (3 μM).

T1 sequence (P13569 with tags, fused parts or gaps DEL508-508): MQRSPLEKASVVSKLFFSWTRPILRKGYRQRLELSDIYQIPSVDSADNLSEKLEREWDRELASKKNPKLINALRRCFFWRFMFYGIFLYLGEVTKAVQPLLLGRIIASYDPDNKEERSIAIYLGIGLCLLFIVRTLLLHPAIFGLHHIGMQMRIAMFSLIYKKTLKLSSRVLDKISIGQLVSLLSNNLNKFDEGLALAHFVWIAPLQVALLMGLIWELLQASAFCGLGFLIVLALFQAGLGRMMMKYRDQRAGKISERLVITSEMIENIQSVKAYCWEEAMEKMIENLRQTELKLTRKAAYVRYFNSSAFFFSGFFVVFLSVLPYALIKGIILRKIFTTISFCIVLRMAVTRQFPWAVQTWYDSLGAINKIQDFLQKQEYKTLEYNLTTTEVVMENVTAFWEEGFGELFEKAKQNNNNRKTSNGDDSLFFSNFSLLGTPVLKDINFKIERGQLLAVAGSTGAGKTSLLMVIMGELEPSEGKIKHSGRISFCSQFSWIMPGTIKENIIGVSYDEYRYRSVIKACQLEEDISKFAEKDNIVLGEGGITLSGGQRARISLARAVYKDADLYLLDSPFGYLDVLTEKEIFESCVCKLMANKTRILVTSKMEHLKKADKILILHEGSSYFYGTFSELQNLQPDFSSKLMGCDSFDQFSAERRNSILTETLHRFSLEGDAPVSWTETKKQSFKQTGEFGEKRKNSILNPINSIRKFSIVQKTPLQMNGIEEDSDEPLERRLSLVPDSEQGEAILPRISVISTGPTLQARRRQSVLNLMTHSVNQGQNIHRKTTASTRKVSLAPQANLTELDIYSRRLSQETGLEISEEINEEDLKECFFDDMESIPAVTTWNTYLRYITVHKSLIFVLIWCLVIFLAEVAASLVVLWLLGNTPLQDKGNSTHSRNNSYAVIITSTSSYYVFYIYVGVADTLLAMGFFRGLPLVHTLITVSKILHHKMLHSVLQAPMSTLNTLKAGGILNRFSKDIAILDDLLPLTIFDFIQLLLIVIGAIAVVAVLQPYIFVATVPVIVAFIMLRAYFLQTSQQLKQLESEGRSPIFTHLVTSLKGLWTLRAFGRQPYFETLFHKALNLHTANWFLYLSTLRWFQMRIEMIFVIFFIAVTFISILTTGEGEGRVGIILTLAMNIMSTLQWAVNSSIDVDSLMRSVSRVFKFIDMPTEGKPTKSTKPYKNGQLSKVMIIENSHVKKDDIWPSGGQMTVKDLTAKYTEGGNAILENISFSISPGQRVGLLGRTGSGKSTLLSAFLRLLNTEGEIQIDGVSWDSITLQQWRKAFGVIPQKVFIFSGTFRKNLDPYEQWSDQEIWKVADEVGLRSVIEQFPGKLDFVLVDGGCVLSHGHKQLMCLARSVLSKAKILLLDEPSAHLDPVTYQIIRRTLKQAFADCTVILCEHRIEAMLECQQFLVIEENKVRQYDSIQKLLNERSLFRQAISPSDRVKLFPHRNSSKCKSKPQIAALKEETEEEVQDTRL

In the case of `O=C(Nc1ncnc2ccccc12)[C@H]1[C@H]2CC(F)(F)CN2[C@]2(C(=O)Nc3c(Cl)cc(Cl)cc32)[C@H]1C(=O)O` [Example 144], the “Nauc @ 1 μM” value under setting [1] was “+ (NAUC “+” refers to an observed NAUC <140% of positive control)”. Besides, the “Nauc @ 3 μM” value under setting [2] is reported as “+ (NAUC “+” refers to an observed NAUC <140% of positive control)”.

For the compound `O=C(Nc1cc(Cl)cc(Cl)c1)C1C2CCCN2C2(C(=O)Nc3c(Cl)cc(Cl)cc32)C1C(=O)NO` (single isomer, unassigned) [Example 234a, 5,7-dichloro-N1′-(3,5-dichlorophenyl)-N2′-hydroxy-2-oxo-1′,2′,5′,6′,7′,7a′-hexahydrospiro[indoline-3,3′-pyrrolizine]-1,2′-dicarboxamide], the “Nauc @ 1 μM” value under setting [3] is recorded as “++ (NAUC “++” refers to an observed NAUC 170-140% of positive control)”. Also, the “Nauc @ 3 μM” value under setting [4] is recorded as “++ (NAUC “++” refers to an observed NAUC 170-140% of positive control)”. Moreover, the “Nauc @ 10 μM” value under setting [5] is reported as “++ (NAUC “++” refers to an observed NAUC 170-140% of positive control)”.

As for `C[C@]1(O)CC2C(C(=O)Nc3cc(Cl)cc(Cl)c3)C(C(=O)O)C3(C(=O)Nc4c(Cl)cc(Cl)cc43)N2C1` (stereo partly drawn) [Example 3], under setting [4], the “Nauc @ 3 μM” value was “+++ (NAUC “+++” refers to an observed NAUC>170% of positive control)”. For the same compound, the “Nauc @ 10 μM” value under setting [5] is listed as “+++ (NAUC “+++” refers to an observed NAUC>170% of positive control)”.

For the compound `O=C(Nc1cc(Cl)cc(Cl)c1)C1C2CCCN2C2(C(=O)Nc3c(Cl)cc(Cl)cc32)C1C(=O)NO` (single isomer, unassigned) [Example 234b, 5,7-dichloro-N1′-(3,5-dichlorophenyl)-N2′-hydroxy-2-oxo-1′,2′,5′,6′,7′,7a′-hexahydrospiro[indoline-3,3′-pyrrolizine]-1,2′-dicarboxamide], the “Nauc @ 1 μM” value under setting [3] is reported as “+ (NAUC “+” refers to an observed NAUC <140% of positive control)”. Further, under setting [4], the “Nauc @ 3 μM” value is “++ (NAUC “++” refers to an observed NAUC 170-140% of positive control)”. Moreover, the “Nauc @ 10 μM” value under setting [5] was “+++ (NAUC “+++” refers to an observed NAUC>170% of positive control)”.

As for `O=C(Nc1ccc2ncncc2c1)[C@H]1[C@H]2CC(F)(F)CN2[C@]2(C(=O)Nc3c(Cl)cc(Cl)cc32)[C@H]1C(=O)O` [Example 140], under setting [1], the “Nauc @ 1 μM” value is “+ (NAUC “+” refers to an observed NAUC <140% of positive control)”. Also, the “Nauc @ 3 μM” value under setting [2] is “+ (NAUC “+” refers to an observed NAUC <140% of positive control)”.

For `COc1c(Cl)cc(NC(=O)C2C3CC(F)(F)CN3C3(C(=O)Nc4c(Cl)cc(Cl)cc43)C2C(=O)O)cc1Cl` (stereo not drawn) [Example 9], under setting [4], the “Nauc @ 3 μM” value was “+++ (NAUC “+++” refers to an observed NAUC>170% of positive control)”. The “Nauc @ 10 μM” value under setting [5] is given as “+++ (NAUC “+++” refers to an observed NAUC>170% of positive control)”.

Turning to `Cn1nccc1NC(=O)[C@H]1[C@@H](C(=O)Nc2cc(Cl)cc(Cl)c2)[C@H]2CCCN2[C@]12C(=O)Nc1c(Cl)cc(Cl)cc12` (single isomer, unassigned) [Example 239, (1′R,2′ S,7a′R)-5,7-dichloro-N1′-(3,5-dichlorophenyl)-N2′-(1-methyl-1H-pyrazol-5-yl)-2-oxo-1′,2′,5′,6′,7′,7a′-hexahydrospiro[indoline-3,3′-pyrrolizine]-1′,2′-dicarboxamide], under setting [3], the “Nauc @ 1 μM” value was “+ (NAUC “+” refers to an observed NAUC <140% of positive control)”. The “Nauc @ 3 μM” value under setting [4] is “+ (NAUC “+” refers to an observed NAUC <140% of positive control)”. The “Nauc @ 10 μM” value under setting [5] is listed as “+ (NAUC “+” refers to an observed NAUC <140% of positive control)”.

On to `O=C(Nc1cc(Cl)cc(Cl)c1F)C1C2CC(F)(F)CN2C2(C(=O)Nc3c(Cl)cc(Cl)cc32)C1C(=O)O` (stereo not drawn) [Example 42], for which the “Nauc @ 3 μM” value under setting [4] was “+++ (NAUC “+++” refers to an observed NAUC>170% of positive control)”. For the same compound, the “Nauc @ 10 μM” value under setting [5] is recorded as “+++ (NAUC “+++” refers to an observed NAUC>170% of positive control)”.

In the case of `O=C(Nc1cnc(-c2ccccc2)cn1)[C@H]1[C@H]2CC(F)(F)CN2[C@]2(C(=O)Nc3c(Cl)cc(Cl)cc32)[C@H]1C(=O)O` [Example 134], the “Nauc @ 1 μM” value under setting [3] is on record as “+ (NAUC “+” refers to an observed NAUC <140% of positive control)”. Under setting [4], the “Nauc @ 3 μM” value is on record as “+ (NAUC “+” refers to an observed NAUC <140% of positive control)”.

Consider `NNC(=O)[C@H]1[C@@H](C(=O)Nc2cc(Cl)cc(Cl)c2)[C@H]2CCCN2C12C(=O)Nc1c(Cl)cc(Cl)cc12` (stereo partly drawn) [Example 236, (1′R,2′S,7a′R)-5,7-dichloro-N-(3,5-dichlorophenyl)-2′-(hydrazinecarbonyl)-2-oxo-1′,2′,5′,6′,7′,7a′-hexahydrospiro[indoline-3,3′-pyrrolizine]-1′-carboxamide], for which the “Nauc @ 1 μM” value under setting [3] was “+ (NAUC “+” refers to an observed NAUC <140% of positive control)”. Besides, the “Nauc @ 3 μM” value under setting [4] was “++ (NAUC “++” refers to an observed NAUC 170-140% of positive control)”. In addition, the “Nauc @ 10 μM” value under setting [5] is “+++ (NAUC “+++” refers to an observed NAUC>170% of positive control)”.

As to `CN(C(=O)[C@H]1[C@H]2CC(F)(F)CN2[C@]2(C(=O)Nc3c(Cl)cc(Cl)cc32)[C@H]1C(=O)O)c1cccc(C(F)(F)F)c1` [Example 157], the “Nauc @ 1 μM” value under setting [1] is on record as “++ (NAUC “++” refers to an observed NAUC 170-140% of positive control)”. In addition, under setting [2], the “Nauc @ 3 μM” value was “++ (NAUC “++” refers to an observed NAUC 170-140% of positive control)”.

Take `Cn1ccc2c(NC(=O)[C@H]3[C@H]4CC(F)(F)CN4[C@]4(C(=O)Nc5c(Cl)cc(Cl)cc54)[C@H]3C(=O)O)cccc21` [Example 141]: the “Nauc @ 1 μM” value under setting [1] is “+ (NAUC “+” refers to an observed NAUC <140% of positive control)”. Further, under setting [2], the “Nauc @ 3 μM” value is listed as “+ (NAUC “+” refers to an observed NAUC <140% of positive control)”.

Turning to `O=C(Nc1cc(Cl)cc(Cl)c1)C1C(C(F)(F)c2cccc(C(F)(F)F)c2)NC2(C(=O)Nc3c(Cl)cc(Cl)cc32)C1C(=O)O` (stereo not drawn) [Example 70.b], the “Nauc @ 10 μM” value under setting [5] is listed as “+ (NAUC “+” refers to an observed NAUC <140% of positive control)”.

On to `O=C(Nc1cc(Cl)cc(Cl)c1)C1C(C(F)(F)c2ccccc2)NC2(C(=O)Nc3c(Cl)cc(Cl)cc32)C1C(=O)O` (stereo not drawn) [Example 39], for which, under setting [4], the “Nauc @ 3 μM” value is “+++ (NAUC “+++” refers to an observed NAUC>170% of positive control)”. Besides, the “Nauc @ 10 μM” value under setting [5] is given as “+++ (NAUC “+++” refers to an observed NAUC>170% of positive control)”.

For `O=C(O)[C@H]1[C@@H](C(=O)N(CC23CC4CC(CC(C4)C2)C3)c2cc(Cl)cc(Cl)c2)[C@H]2CC(F)(F)CN2[C@]12C(=O)Nc1c(Cl)cc(Cl)cc12` [Example 194], the “Nauc @ 1 μM” value under setting [1] is “++ (NAUC “++” refers to an observed NAUC 170-140% of positive control)”. The “Nauc @ 3 μM” value under setting [2] is “+++ (NAUC “+++” refers to an observed NAUC>170% of positive control)”.

On to `O=C(O)[C@H]1[C@@H](C(=O)N(CC2CC2)c2cccc(C(F)(F)F)c2)[C@H]2CC(F)(F)CN2[C@]12C(=O)Nc1c(Cl)cc(Cl)cc12` [Example 163], for which, under setting [1], the “Nauc @ 1 μM” value is on record as “+++ (NAUC “+++” refers to an observed NAUC>170% of positive control)”. Further, the “Nauc @ 3 μM” value under setting [2] is “+++ (NAUC “+++” refers to an observed NAUC>170% of positive control)”. For the same compound, the “Nauc @ 10 μM” value under setting [6] is “++ (NAUC “++” refers to an observed NAUC 170-140% of positive control)”.

With `O=C(O)[C@@H]1[C@H](C(=O)N(CC2CC2)c2cc(Cl)cc(Cl)c2)[C@H](C(F)(F)F)NC12C(=O)Nc1c(Cl)cc(Cl)cc12` (single isomer, unassigned) [Example 270a], the “Nauc @ 1 μM” value under setting [1] was “+++ (NAUC “+++” refers to an observed NAUC>170% of positive control)”. Moreover, the “Nauc @ 3 μM” value under setting [2] is reported as “+++ (NAUC “+++” refers to an observed NAUC>170% of positive control)”. The “Nauc @ 10 μM” value under setting [6] is “++ (NAUC “++” refers to an observed NAUC 170-140% of positive control)”.

Take `C[C@]1(O)CC2C(C(=O)Nc3cc(Cl)c(OC(F)F)c(Cl)c3)C(C(=O)O)C3(C(=O)Nc4c(Cl)cc(Cl)cc43)N2C1` (stereo partly drawn) [Example 4]: the “Nauc @ 3 μM” value under setting [4] was “+++ (NAUC “+++” refers to an observed NAUC>170% of positive control)”. For the same compound, the “Nauc @ 10 μM” value under setting [5] is listed as “+++ (NAUC “+++” refers to an observed NAUC>170% of positive control)”.

Regarding `O=C(Nc1ccc2nccnc2c1)[C@H]1[C@H]2CC(F)(F)CN2[C@]2(C(=O)Nc3c(Cl)cc(Cl)cc32)[C@H]1C(=O)O` [Example 147], the “Nauc @ 1 μM” value under setting [1] is on record as “+ (NAUC “+” refers to an observed NAUC <140% of positive control)”. Besides, the “Nauc @ 3 μM” value under setting [2] is given as “+ (NAUC “+” refers to an observed NAUC <140% of positive control)”.

Turning to `O=C(O)[C@H]1[C@@H](C(=O)N(CC2CC2)c2cccc(C3(C(F)(F)F)CC3)c2)[C@H]2CC(F)(F)CN2[C@]12C(=O)Nc1c(Cl)cc(Cl)cc12` [Example 189], the “Nauc @ 1 μM” value under setting [1] is listed as “++ (NAUC “++” refers to an observed NAUC 170-140% of positive control)”. The “Nauc @ 3 μM” value under setting [2] is “+ (NAUC “+” refers to an observed NAUC <140% of positive control)”.

As to `CN(C(=O)[C@H]1[C@@H](C(=O)NCC(F)(F)F)[C@]2(C(=O)Nc3c(Cl)cc(Cl)cc32)N2CC(F)(F)C[C@@H]12)c1cc(Cl)cc(Cl)c1` (single isomer, unassigned) [Example 232a], the “Nauc @ 1 μM” value under setting [3] is “+ (NAUC “+” refers to an observed NAUC <140% of positive control)”. Also, the “Nauc @ 3 μM” value under setting [4] was “+ (NAUC “+” refers to an observed NAUC <140% of positive control)”. Besides, the “Nauc @ 10 μM” value under setting [5] is reported as “+ (NAUC “+” refers to an observed NAUC <140% of positive control)”.
